{
  "source": "paper PMC8745345",
  "about": "“Hydroxy Pentacyclic Triterpene Acid, Kaempferol, Inhibits the Human 5-Hydroxytryptamine Type 3A Receptor Activity” (International Journal of Molecular Sciences, 2022)",
  "biological_target": "T1, human 5-HT3A receptor D177A+F199A double mutant (Homo sapiens, UniProt P46098, D199A/F221A)",
  "T1 sequence (P46098 24-478 D199A/F221A)": "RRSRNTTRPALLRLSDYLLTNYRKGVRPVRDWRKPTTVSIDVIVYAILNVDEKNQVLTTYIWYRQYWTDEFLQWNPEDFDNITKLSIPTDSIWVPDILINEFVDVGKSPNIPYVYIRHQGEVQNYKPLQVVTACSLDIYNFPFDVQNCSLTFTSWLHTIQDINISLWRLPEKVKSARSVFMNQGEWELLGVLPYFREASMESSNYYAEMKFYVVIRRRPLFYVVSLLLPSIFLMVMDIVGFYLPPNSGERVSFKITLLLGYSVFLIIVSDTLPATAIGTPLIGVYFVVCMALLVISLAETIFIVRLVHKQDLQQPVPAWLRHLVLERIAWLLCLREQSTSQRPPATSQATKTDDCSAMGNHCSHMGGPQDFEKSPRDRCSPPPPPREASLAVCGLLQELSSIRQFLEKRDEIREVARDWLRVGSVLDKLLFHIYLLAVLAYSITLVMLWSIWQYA",
  "assay": "Two-electrode voltage clamp, I5-HT inhibition, D177A+F199A double mutant",
  "format": "cell-based",
  "method": "Human 5-HT3A receptor cDNA was linearized using restriction enzyme XhoI. In vitro transcription was performed using an mMESSAGE mMACHINE T7 Transcription Kit (Thermo Fisher Scientific, Waltham, MA, USA). The final mRNA product was dissolved in 1X Diethyl Pyrocarbonate (RNase-free water) at a final concentration of 1 μg/μL and kept in a deep-freezer at −80 °C until used.\nXenopus oocytes were used in this study as cells for expression of human 5-HT3A receptor. All female frogs used in this experiment were obtained from the Korean Xenopus Resource Center for Research (KXRCR000001). […] Xenopus oocytes were extracted during ice incubation state and isolated as single oocytes using collagenase II (2 mg/mL) in OR2 buffer (82.5 mM NaCl, 2 mM KCl, 1 mM MgCl2, 5 mM HEPES, pH 7.4). Isolated oocytes were incubated with ND96 incubation buffer (96 mM NaCl, 2 mM KCl, 1 mM MgCl2, 1.8 mM CaCl2, 5 mM HEPES, 2.5 mM sodium pyruvate, and 50 mg/mL gentamycin, pH 7.4) at 18 °C until the experiment was performed. Human 5-HT3A receptor mRNA was injected into oocytes using a nanoinjector (Drummond Scientific, Broomall, PA, USA) with a mineral-filled 10 μL microdispenser (VWR, Piscataway, NJ, USA).\nTo confirm the KAE activity on the human 5-HT3A receptor, a two-electrode voltage clamp (OC-725C; Warner Instruments, Hamden, CT, USA) with a Digitata 1550A was used. For the experiment, induced-inward current was converted to digital data with pClamp 10 software (Axon Instruments, Union City, CA, USA). All experiments were performed at room temperature using an oocyte clamp equipped with Digidata. The membrane holding potential was −80 mV.\nThe voltage relationship experiment for confirming the relationship between induce-inward current and voltage, the voltage was varied from −80 mV to +60 mV using a ramp protocol. Each microelectrode was filled with 3 M KCl having a resistance of 0.2 MΩ. Serotonin and KAE applied in the experiment were diluted in ND96 bath solution (96 mM NaCl, 2 mM KCl, 1 mM MgCl2, 1.8 mM CaCl2, and 5 mM HEPES, pH 7.5) to specified concentration. The rate of application of the reagent was 2 mL per minute. All recording data were analyzed using Clampfit 9.0 (Molecular Devices, San Jose, CA, USA).\nPoint mutation was performed using Pfu DNA polymerase (Quikchange II Site-Directed Mutagenesis Kit). Chimeric primer design for PCR was performed under appropriate primer design guidelines. To remove methylated cDNA, Dpn I was used. Transformation of the mutated DNA used pGEM vector. pDNA was purified using a miniprep protocol. […]\nAll presented experiments were performed at least three times for scientific verification. […] Induced-inward current data were analyzed with SigmaPlot 10.0 software (Systat Software, Inc., San Jose, CA, USA). […]",
  "data": [
    {"smiles": "O=c1c(O)c(-c2ccc(O)cc2)oc2cc(O)cc(O)c12", "note": "[KAE, kaempferol]", "values": [
      {"measurement": "n (Hill coefficient)", "setting": "D177A+F199A, −80 mV", "value": "1.3 ± 0.4"},
      {"measurement": "IC50", "setting": "D177A+F199A, −80 mV, Table 1", "value": "42.9 ± 10.2", "unit": "µM"},
      {"measurement": "Vmax", "setting": "D177A+F199A, −80 mV, Table 1", "value": "11.9 ± 1.2", "unit": "%"},
      {"measurement": "Imax", "setting": "D177 and F199 double-mutant, Figure 5D", "value": "11.9 ± 1.2", "unit": "%"}
    ]}
  ]
}
